Format in all cases: biochemical
The target of assay [1] is T1, mouse complex I (Mus musculus, UniProt P03888+Q91WD5+Q9DC70).
T1 construct: from tissue; host or cells: mouse (C57BL/6) heart mitochondria
As to the kind of experiment: Extent of inhibition of isolated IACS-2858-bound mouse complex I prepared for cryo-EM. The following applies: isolated inhibitor-bound enzyme after size exclusion, initial rate versus control without inhibitor; cryo-EM sample. How it is done:
Complex I inhibited by IACS-2858 was prepared by a method adapted from that of Bridges et al. ([23]) for preparing mouse complex I inhibited by piericidin A1. C57BL/6 mice were euthanized by cervical dislocation in accord with the UK Animals (Scientific Procedures) Act 1986 (PPL: P6C97520A, approved by the local ethics committee and the UK Home Office), and mitochondrial membranes were prepared from heart tissue as described previously ([20]). Starting from membranes containing ~40 mg of total protein, the proteins were solubilized from the membranes by addition of 1% DDM (Glycon), and the mixture was centrifuged. […] The level of inhibition achieved was determined by comparing the initial rates of catalysis by the control and inhibited samples in buffer containing 20 mM tris-HCl (pH 7.5 at 32°C), 0.15% soy bean asolectin (Avanti Polar Lipids), and 0.15% CHAPS (Merck Chemicals Ltd.), using 200 μM dQ, with catalysis initiated by 200 μM NADH and monitored at 340 to 380 nm (ε = 4.81 mM^−1 cm^−1). […] The concentration of the peak fraction for the inhibited protein, eluting at ~1.65 ml, was estimated using a NanoDrop ultraviolet-visible spectrophotometer [ε280 = 0.2 (mg ml^−1)^−1], and the level of inhibition of the final eluted IACS-2858–treated sample was determined as above. […]
(In general: SEC sorts molecules by how far they enter the pores of the column.)

Assay [2] deals with T2, bovine complex I (Bos taurus, UniProt P03887+P17694+P42026).
T2 construct: Complex I from bovine heart were prepared; from tissue; host or cells: bovine heart mitochondria
As to the kind of experiment: NADH:decylubiquinone oxidoreduction by purified bovine complex I. The following applies: purified B. taurus complex I, dQ; ± SE. The protocol: (§1) All catalytic activity assays were conducted at 32°C in 96-well plates using a Molecular Devices Spectramax 384 plus plate reader. Catalysis was initiated by addition of 200 μM NADH and monitored at 340 and 380 nm (ε340–380 = 4.81 mM^−1 cm^−1). Linear rates were measured for all assays, inhibitors were added from dimethyl sulfoxide stock solutions as required, and inhibitor-insensitive rates (using either 1 μM piericidin A or 1.4 μM IACS-2858) were subtracted from each measured rate. Membrane samples were prepared as described previously ([17], [20], [59], [60]), diluted to 20 μg ml^−1 in 10 mM tris-SO4 (pH 7.5) and 250 mM sucrose, and supplemented with 3 μM horse heart cytochrome c (except for P. denitrificans, for which the activity is unaffected by the addition). Mouse, bovine, and yeast (Y. lipolytica) complex I were purified as described previously ([17], [20], [59]); diluted to 0.5 nM in 20 mM tris-HCl (pH 7.5), 0.15% asolectin, and 0.15% CHAPS; and assayed using either 200 μM dQ or 200 μM ubiquinone-1 (Sigma-Aldrich). Complex I was purified from P. denitrificans strain Pd1222 ([61]) and provided by O. D. Jarman (MRC Mitochondrial Biology Unit, University of Cambridge); it was assayed likewise but in 10 mM MES-HCl (pH 6.5), 25 mM NaCl, and 2 mM CaCl2. […]

Assay [3] has as its system complex I. As to the kind of experiment: NADH:ubiquinone-1 oxidoreduction in the presence of inhibitor. The following applies: 200 μM ubiquinone-1. The protocol:
as §1

The values below come from paper PMC8121435, “Cork-in-bottle mechanism of inhibitor binding to mammalian complex I” (Science Advances, 2021).

“And” between values parts separate entries of the source, which are not always exact repeats. Equal values may be shown once.

Consider `CS(=O)(=O)C1CCN(c2cccc(Cn3cc(-c4nc(-c5ccc(OC(F)(F)F)cc5)no4)ccc3=O)c2)CC1` [IACS-2858, 1-(3-(4-(Methylsulfonyl)piperidin-1-yl)benzyl)-5-(3-(4-(trifluoromethoxy)phenyl)-1,2,4-oxadiazol-5-yl)pyridin-2(1H)-one], for which the extent of inhibition in assay [1] was 81 ± 5% and 81.3 ± 4.7%. For the same compound, the IC50 (usually the midpoint of a concentration-inhibition curve) in assay [2] was 9.3 ± 0.7 nM. In assay [3], the “reduction of ubiquinone-1 in the presence of the inhibitor” value is given as “No activity was observed”.
